The results in this text go back to ChEMBL document CHEMBL3785046, “Synthesis, in vitro and in vivo evaluation of novel substituted N-(4-(2-(4-benzylpiperazin-1-yl)ethoxy)phenyl)-N-methyl-quinazolin-4-amines as potent antitumor agents” (Bioorg Med Chem Lett, 2016).

The test system of series [1] is HepG2. In words: Antiproliferative activity against human HepG2 cells after 24 hrs by MTT assay. The format is functional, cell-based. The settings on record: HepG2, 24 h.
Another series deals with A549. In words: Antiproliferative activity against human A549 cells after 24 hrs by MTT assay. The following applies: A549, 24 h. It counts as functional, cell-based.
The next series concerns MCF7. In words: Antiproliferative activity against human MCF7 cells after 24 hrs by MTT assay. It counts as functional, cell-based. The settings on record: MCF7, 24 h.
Series [2] in a line: Antiproliferative activity against human SW620 cells after 24 hrs by MTT assay. It counts as functional, cell-based. The following applies: SW-620, 24 h.
Series [3] deals with HepG2. In words: Cell cycle arrest in human HepG2 cells assessed as accumulation at S phase at 200 nM after 24 hrs by propidium iodide staining based flow cytometry (reference value: 39%). The format is functional.
In series [4] the test system is HepG2. In words: Cell cycle arrest in human HepG2 cells assessed as accumulation at G2/M phase at 200 nM after 24 hrs by propidium iodide staining based flow cytometry (reference value: 19%). It counts as functional.
In series [5] the test system is HepG2. In words: Cell cycle arrest in human HepG2 cells assessed as accumulation at G1 phase at 500 nM after 24 hrs by propidium iodide staining based flow cytometry (reference value: 42%). It counts as functional.
Series [6] relates to HepG2. In words: Cell cycle arrest in human HepG2 cells assessed as accumulation at S phase at 500 nM after 24 hrs by propidium iodide staining based flow cytometry (reference value: 39%). The format is functional.
Series [7] concerns HepG2. In words: Cell cycle arrest in human HepG2 cells assessed as accumulation at G2/M phase at 500 nM after 24 hrs by propidium iodide staining based flow cytometry (reference value: 19%). The format is functional.
In series [8] the test system is HepG2. In words: Cell cycle arrest in human HepG2 cells assessed as accumulation at G2/M phase after 24 hrs by propidium iodide staining based flow cytometry (reference value: 19%). It counts as functional.
The subject of series [9] is HepG2. In words: Upregulation of cyclin B1 in human HepG2 cells at 10 to 100 nM after 24 hrs by Western blot analysis. It counts as functional, cell-based.
The test system of series [10] is HepG2. In words: Upregulation of phosphorylated histone H3 levels in human HepG2 cells at 10 to 100 nM after 24 hrs by Western blot analysis. The format is functional, cell-based.
Series [11] concerns HepG2. In words: Downregulation of Cdc25C in human HepG2 cells at 10 to 100 nM after 24 hrs by Western blot analysis. It counts as functional, cell-based.
Series [12] relates to HepG2. In words: Downregulation of Cdk1 in human HepG2 cells at 10 to 100 nM after 24 hrs by Western blot analysis. The format is functional, cell-based.
Series [13] has as its system HepG2. In words: Induction of apoptosis in human HepG2 cells assessed as upregulation of cleaved PARP levels at 0.5 uM after 48 hrs by Western blot analysis. The format is functional, cell-based.
Series [14] has as its system HepG2. In words: Induction of apoptosis in human HepG2 cells assessed as upregulation of cleaved caspase-3 levels at 0.5 uM after 48 hrs by Western blot analysis. It counts as functional, cell-based.
Series [15] relates to HepG2. In words: Induction of apoptosis in human HepG2 cells assessed as upregulation of cleaved PARP levels after 48 hrs by Western blot analysis. The format is functional, cell-based.
For series [16], the system named is HepG2. In words: Induction of apoptosis in human HepG2 cells assessed as upregulation of cleaved caspase-3 levels after 48 hrs by Western blot analysis. The format is functional, cell-based.
Series [17] concerns HepG2. In words: Binding affinity to alpha tubulin in human HepG2 cells assessed as disruption of microtubule at 1 uM after 24 hrs by immunofluorescence staining based microscopy. It counts as cell-based.
In series [18] the test system is HepG2. In words: Antitumor activity against human HepG2 cells xenografted with nude mouse assessed as tumor volume at 10 mg/kg, iv administered every 2 days for 31 days (reference value: 87.39 +/- 3.529 mm3). It counts as functional.
Series [19] relates to HepG2. In words: Antitumor activity against human HepG2 cells xenografted with nude mouse assessed as tumor weight at 10 mg/kg, iv administered every 2 days for 31 days. The format is functional.
For series [20], the system named is HepG2. In words: Antitumor activity against human HepG2 cells xenografted with nude mouse assessed as tumor mass change at 10 mg/kg, iv administered every 2 days for 31 days. The format is functional.
Series [21] has as its system Mus musculus. In words: Toxicity in nude mouse xenografted with human HepG2 cells assessed as weight loss at 10 mg/kg, iv administered every 2 days for 31 days. It counts as organism-based. The settings on record: in vivo.
For series [22], the system named is Mus musculus. In words: Toxicity in nude mouse xenografted with human HepG2 cells assessed as feeding at 10 mg/kg, iv administered every 2 days for 31 days. It counts as organism-based. The settings on record: in vivo.
Series [23] deals with Mus musculus. In words: Toxicity in nude mouse xenografted with human HepG2 cells assessed as abnormal behavior at 10 mg/kg, iv administered every 2 days for 31 days. The format is organism-based. The following applies: in vivo.
For series [24], the system named is HepG2. In words: Cell cycle arrest in human HepG2 cells assessed as accumulation at G1 phase at 100 nM after 24 hrs by propidium iodide staining based flow cytometry (reference value: 42%). The format is functional.
Series [25] relates to HepG2. In words: Cell cycle arrest in human HepG2 cells assessed as accumulation at S phase at 100 nM after 24 hrs by propidium iodide staining based flow cytometry (reference value: 39%). It counts as functional.
The test system of series [26] is HepG2. In words: Cell cycle arrest in human HepG2 cells assessed as accumulation at G2/M phase at 100 nM after 24 hrs by propidium iodide staining based flow cytometry (reference value: 19%). The format is functional.
Series [27] relates to HepG2. In words: Cell cycle arrest in human HepG2 cells assessed as accumulation at G1 phase at 200 nM after 24 hrs by propidium iodide staining based flow cytometry (reference value: 42%). It counts as functional.
The subject of series [28] is HepG2. In words: Antitumor activity against human HepG2 cells xenografted with nude mouse assessed as tumor volume at 5 mg/kg, iv administered every 2 days for 31 days (reference value: 103.6 +/- 1.77 mm3). The format is functional.
Series [29] has as its system HepG2. In words: Antitumor activity against human HepG2 cells xenografted with nude mouse assessed as tumor weight at 5 mg/kg, iv administered every 2 days for 31 days. It counts as functional.

Each structure is given as a SMILES string. pIC50: −log10 of the molar value. Activity calls are given as the source filed them. The rule behind the calls is not given here.

Take `Cc1nc(N(C)c2ccc(OCCN3CCN(Cc4ccccc4C#N)CC3)cc2)c2ccccc2n1`: the pIC50 with HepG2 [1] is 6.05; in the series on A549 it was 5.24; in the series on MCF7, 6.00; in series [2] it was 6.05.
With `Cc1nc(N(C)c2ccc(OCCN3CCN(Cc4ccccc4Cl)CC3)cc2)c2ccccc2n1`, the pIC50 was 6.26 with HepG2 [1], 6.06 in the series on A549, 5.63 in the series on MCF7 and 5.53 in [2].
Regarding `CN(c1ccc(OCCN2CCN(Cc3c(F)cccc3F)CC2)cc1)c1nc(Cl)nc2ccccc12`, the pIC50 was 5.84 in the series with HepG2 [1], 5.20 in the series on A549, 5.70 with MCF7 and 5.49 in [2].
With `Cc1nc(N(C)c2ccc(OCCN3CCN(Cc4ccccc4Br)CC3)cc2)c2ccccc2n1`, the pIC50 in the series with HepG2 [1] is 6.36; in the series with A549, less than 5.00; in the series with MCF7, 5.67; in [2] it was 5.91.
`CN(c1ccc(OCCN2CCN(Cc3ccccc3F)CC2)cc1)c1nc(Cl)nc2ccccc12`: the Activity in the series on HepG2 [3] is 26%; with HepG2 [4], 44%; with HepG2 [5], 10%; with HepG2 [6], 23%; in the series on HepG2 [7], 67%; in the series with HepG2 [8] it was “Dose-dependent effect”. Besides, the Activity result in the series with HepG2 [15] was “Dose-dependent effect”; in the series with HepG2 [16], “Dose-dependent effect”; in the series with HepG2 [18] it was 259.78 mm3; with HepG2 [19], 0.217 g; with HepG2 [20], 78.69%; in the series with Mus musculus [21] it was “Non-toxic”. In addition, the Activity result is “Non-toxic” in the series on Mus musculus [22]; “Non-toxic” with Mus musculus [23]; 38% in the series on HepG2 [24]; 37% in the series on HepG2 [25]; 25% in the series with HepG2 [26]; 30% in the series with HepG2 [27]. Moreover, the result in the series on HepG2 [9], in the series with HepG2 [10], with HepG2 [11], in the series on HepG2 [12], in the series on HepG2 [13] and in the series with HepG2 [14] was Active. The result in the series on HepG2 [17] was Active. In addition, the negative-log IC50 (pIC50) in the series on HepG2 [1] was 7.54; in the series with A549 it was 6.83; in the series on MCF7, 7.00; in series [2] it was 7.28.
Take `CN(c1ccc(OCCN2CCN(Cc3ccc(F)c(F)c3)CC2)cc1)c1nc(Cl)nc2ccccc12`: the pIC50 is 5.88 in the series on HepG2 [1], 5.81 with A549, 5.63 with MCF7 and 6.05 in series [2].
With `COc1cccc2c1C(=O)c1c(O)c3c(c(O)c1C2=O)C[C@@](O)(C(=O)CO)C[C@@H]3O[C@H]1C[C@H](N)[C@H](O)[C@H](C)O1.Cl` [DOXORUBICIN HYDROCHLORIDE], the Activity turned out to be 238.7 mm3 with HepG2 [28] and 0.188 g in the series on HepG2 [29].
As to `CN(c1ccc(OCCN2CCN(Cc3ccccc3Cl)CC2)cc1)c1nc(Cl)nc2ccccc12`, the pIC50 was 6.19 in the series with HepG2 [1], 6.43 in the series on A549, 5.91 with MCF7 and 6.01 in series [2].
In the case of `Cc1nc(N(C)c2ccc(OCCN3CCN(Cc4ccc(C(C)(C)C)cc4)CC3)cc2)c2ccccc2n1`, the pIC50 (in the series with HepG2 [1]; in the series on A549; in the series with MCF7; in series [2]) was less than 5.00 each time.
Regarding `Cc1nc(N(C)c2ccc(OCCN3CCN(Cc4ccccc4F)CC3)cc2)c2ccccc2n1`, the negative logarithm of the IC50 (pIC50) with HepG2 [1] was 7.05; in the series with A549, 6.55; with MCF7 it was 6.16; in [2] it was 6.15.
Take `Cc1nc(N(C)c2ccc(OCCN3CCN(Cc4ccc(F)c(F)c4)CC3)cc2)c2ccccc2n1`: the negative logarithm of the IC50 (pIC50) in the series with HepG2 [1] is 5.18; in the series with A549, less than 5.00; in the series with MCF7, 5.21; in series [2] it was 5.49.
Take `CN(c1ccc(OCCN2CCN(Cc3ccc(C(C)(C)C)cc3)CC2)cc1)c1nc(Cl)nc2ccccc12`: the pIC50 (in the series with HepG2 [1]; in the series on A549; in the series with MCF7; in [2]) was less than 5.00 each time.
